In PMC7956643, “Synthesis of Novel Pyrido[1,2-c]pyrimidine Derivatives with 6-Fluoro-3-(4-piperidynyl)-1,2-benzisoxazole Moiety as Potential SSRI and 5-HT1A Receptor Ligands” (International Journal of Molecular Sciences, 2021):

Key:
D2 receptors = target: T1, D2 receptors (Homo sapiens, UniProt P14416); assay: D2 radioligand binding assay; conditions: [3H]-raclopride; HEK293 cells, human receptor
T1 construct: expressed in transfected cells
Description: (§1) In vitro radioligand binding assays for 5-HT2A, 5-HT6, 5-HT7 and D2 receptors were carried out using methods published by Zajdel et al.. For the assays, HEK293 cell cultures stably expressing the investigated human receptors were used. Cell pellets were thawed and homogenized in 20 vol of assay buffer using an Ultra Turrax tissue homogenizer, then centrifuged twice at 35000 g for 20 min at 4 °C, with incubation for 15 min at 37 °C in between. The composition of the assay buffers was as follows: for 5-HT2A receptors—50 mM Tris-HCl, 0.1 mM EDTA, 4 mM MgCl2 and 0.1% ascorbate; for 5-HT6 receptors—50 mM Tris-HCl, 0.5 mM EDTA, 4 mM MgCl2; for 5-HT7 receptors—50 mM Tris-HCl, 4 mM MgCl2, 10 µM pargyline and 0.1% ascorbate; for D2 receptors—50 mM Tris-HCl, 1 mM EDTA, 4 mM MgCl2, 120 mM NaCl, 5 mM KCl, 1.5 mM CaCl2 and 0.1% ascorbate. All assays were incubated in total volume of 200 mL in 96-well microtitre plates for 1 h at 37 °C, except for 5-HT2A receptors which were incubated at room temperature for 1.5 h. The process of equilibration was terminated by rapid filtration through Unifilter plates with a 96-well cell harvester, and radioactivity retained on the filters was quantified on a Microbeta plate reader (PerkinElmer, USA). For displacement studies, the assay samples contained as radioligands (PerkinElmer): 2 nM [^3H]-ketanserin (spec. act. 53.4 Ci/mmol) for 5-HT2A receptors; 2 nM [^3H]-LSD (spec. act. 83.6 Ci/mmol) for 5-HT6 receptors; 0.6 nM [^3H]-5-CT (spec. act. 39.2 Ci/mmol) for 5-HT7 receptors and [^3H]-raclopride (spec. act. 76.0 Ci/mmol) for D2 receptors. […] Each compound was tested in triplicate at 7–8 concentrations (10^-11-10^-4 M). The inhibition constants (Ki) were calculated from the Cheng–Prusoff equation [46]. Results were expressed as means of at least two separate experiments.

5-HT2A receptors = target: T2, 5-HT2A receptors (Homo sapiens, UniProt P28223); assay: 5-HT2A radioligand binding assay; conditions: [3H]-ketanserin; HEK293 cells, human receptor
T2 construct: expressed in transfected cells
Description: as §1, with “All assays were incubated in total volume of 200 mL in 96-well microtitre plates for 1 h at 37 °C, except for 5-HT2A receptors which were incubated at room temperature for 1.5 h.” left out

5-HT6 receptors = target: T3, 5-HT6 receptors (Homo sapiens, UniProt P50406); assay: 5-HT6 radioligand binding assay; conditions: [3H]-LSD; HEK293 cells, human receptor
T3 construct: expressed in transfected cells
Description: as §1

[1] = Metabolic stability in pooled human liver microsomes; assay type: in vitro ADME; conditions: pH 7.4, pooled HLMs 1 mg/mL, NADPH, 1 µM compound, 37 °C
Description: Stock solutions of studied compounds were prepared at concentration of 100 µM in 1:1 acetonitrile/water mixture. Incubation mixes consisted 1 μM of a studied compound, 100 µM of NADPH in phosphate buffer and 1 mg/mL of pooled HLMs (Sigma-Aldrich, St. Louis, MO, USA) in potassium phosphate buffer (0.1 M, pH 7.4). Incubation was carried out in 96-well plates at 37 °C. Incubation mixtures (excluding compound solution) were subjected to 5 min preincubations, and started by addition of 10 µL of compound stock solution. After 0, 5, 10, 15, and 30 min, 25 µL samples of incubation reaction were added to the equal volume of ice-cold acetonitrile containing 1 µM of IS (buspirone hydrochloride). Control incubations were performed without NADPH to assess possible chemical instability. All samples were immediately centrifuged (10 min, 10,000 rpm) and the resulting supernatant was directly subjected to LC-MS analysis.
LC-MS analysis was performed on an Agilent 1260 system coupled to SingleQuad 6120 mass spectrometer (Agilent Technologies, Santa Clara, CA, USA). A Poroshell C18 EC120 column (3.0 × 100 mm^2, 2.7 μm, Agilent Technologies, Santa Clara, CA, USA) was used in reversed-phase mode with gradient elution starting with 90% of phase A (0.1% formic acid in deionised water) and 10% of phase B (0.1% formic acid in acetonitrile). […]

T3 sequence (P50406 whole entry): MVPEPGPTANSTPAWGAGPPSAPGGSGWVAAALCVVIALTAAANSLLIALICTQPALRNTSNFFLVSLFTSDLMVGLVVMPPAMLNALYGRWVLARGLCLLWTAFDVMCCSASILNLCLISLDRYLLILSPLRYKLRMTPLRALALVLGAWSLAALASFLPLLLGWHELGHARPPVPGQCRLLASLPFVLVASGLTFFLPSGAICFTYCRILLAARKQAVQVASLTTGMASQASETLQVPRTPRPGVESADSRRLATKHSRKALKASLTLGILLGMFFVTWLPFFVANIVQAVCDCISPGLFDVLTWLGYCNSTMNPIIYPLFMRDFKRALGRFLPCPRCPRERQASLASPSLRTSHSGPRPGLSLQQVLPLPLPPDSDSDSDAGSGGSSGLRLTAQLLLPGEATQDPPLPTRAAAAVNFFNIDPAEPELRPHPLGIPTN
T2 sequence (P28223 whole entry): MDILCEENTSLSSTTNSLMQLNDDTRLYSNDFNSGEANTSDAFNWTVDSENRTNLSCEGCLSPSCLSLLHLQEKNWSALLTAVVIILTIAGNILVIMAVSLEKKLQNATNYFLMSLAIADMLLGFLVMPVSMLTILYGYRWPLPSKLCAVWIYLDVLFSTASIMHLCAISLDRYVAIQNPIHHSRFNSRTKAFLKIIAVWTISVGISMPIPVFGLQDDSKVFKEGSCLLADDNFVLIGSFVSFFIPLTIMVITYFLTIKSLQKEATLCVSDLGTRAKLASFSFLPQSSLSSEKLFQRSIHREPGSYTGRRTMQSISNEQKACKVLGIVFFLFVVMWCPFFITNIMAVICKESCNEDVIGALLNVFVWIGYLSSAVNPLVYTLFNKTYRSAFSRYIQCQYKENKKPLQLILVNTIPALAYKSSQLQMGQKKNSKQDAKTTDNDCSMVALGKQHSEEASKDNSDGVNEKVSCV
T1 sequence (P14416 whole entry): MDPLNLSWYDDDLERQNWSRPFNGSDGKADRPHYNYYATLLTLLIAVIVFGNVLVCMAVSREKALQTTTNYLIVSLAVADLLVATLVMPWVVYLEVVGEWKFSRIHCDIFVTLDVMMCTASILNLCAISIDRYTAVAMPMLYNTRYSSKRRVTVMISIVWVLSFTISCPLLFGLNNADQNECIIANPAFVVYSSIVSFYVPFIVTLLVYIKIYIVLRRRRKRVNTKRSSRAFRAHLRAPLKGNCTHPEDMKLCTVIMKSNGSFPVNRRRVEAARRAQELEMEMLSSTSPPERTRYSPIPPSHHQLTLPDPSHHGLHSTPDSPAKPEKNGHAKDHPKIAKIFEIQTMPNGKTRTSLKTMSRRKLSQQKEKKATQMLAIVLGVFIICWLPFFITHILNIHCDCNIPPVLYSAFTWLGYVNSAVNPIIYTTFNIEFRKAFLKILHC

| SMILES | Ki (D2 receptors) | Ki (5-HT2A receptors) | Ki (5-HT6 receptors) | half-life at 1 µM [1] |
| --- | --- | --- | --- | --- |
| O=c1c(-c2ccccc2)c2ccccn2c(=O)n1CCCCN1CCC(c2noc3cc(F)ccc23)CC1 [Compound 6a, 4-Phenyl-2-{4-[4-(6-fluoro-1,2-benzoxazol-3-yl)-1-piperidyl]butyl}-pyrido[1,2-c]pyrimidine-1,3-dione] | 7 ± 2 nM | 17 ± 3 nM | 376 ± 58 nM | 3.61 min |
| O=c1c(-c2ccccc2Cl)c2ccccn2c(=O)n1CCCCN1CCC(c2noc3cc(F)ccc23)CC1 [Compound 6d, 4-(2-Chlorophenyl)-2-{4-[4-(6-fluoro-1,2-benzoxazol)-1-piperidyl]butyl}-pyrido[1,2-c]pyrimidine-1,3-dione] | 9 ± 2 nM | 20 ± 4 nM | 709 ± 135 nM | 3.2 min |
